This experiment deals with THP-1. Description: Anticoagulant activity in human THP1 cells assessed as inhibition of TNF-alpha-stimulated tissue factor expression incubated 1 hr before TNFalpha challenge measured after 5 hrs. In kind it is functional, cell-based.

As to `C[C@@H]1CC[C@@]2(OC1)O[C@H]1C[C@H]3[C@@H]4CCC5=CC(=O)C[C@@H](O)[C@]5(C)[C@H]4CC[C@]3(C)[C@H]1[C@@H]2C`, the IC50 (commonly the concentration needed to halve the response being measured) is 0.29 µM. Next, `COc1cc(/C=C/C(=O)CC(=O)/C=C/c2ccc(O)c(OC)c2)ccc1O` [CURCUMIN]: 1.21 µM. Turning to `C[C@@H]1CC[C@@]2(OC1)O[C@H]1C[C@H]3[C@@H]4CC=C5C[C@@H](O)CC[C@]5(C)[C@H]4CC[C@]3(C)[C@H]1[C@@H]2C` [DISOGENIN], the IC50 was determined as 6.96 µM. Turning to `C[C@@H]1CC[C@@]2(OC1)O[C@H]1C[C@H]3[C@@H]4CC=C5C[C@@H](O)C[C@@H](O)[C@]5(C)[C@H]4CC[C@]3(C)[C@H]1[C@@H]2C` [RUSCOGENIN], the IC50 was found to be 2.27 µM. Next, `C[C@H]1CC[C@@]2(OC1)O[C@H]1C[C@H]3[C@@H]4CC[C@@H]5C[C@@H](O)CC[C@]5(C)[C@H]4CC[C@]3(C)[C@H]1[C@@H]2C` [SARSASAPOGENIN]: 3.3 µM.

For the origin of these results see ChEMBL document CHEMBL1177832, “One unique steroidal sapogenin obtained through the microbial transformation of ruscogenin by Phytophthora cactorum ATCC 32134 and its potential inhibitory effect on tissue factor (TF) procoagulant activity” (Bioorg Med Chem Lett, 2010).
